ChEMBL document CHEMBL4406877, “Synthesis of 2-arylhydrazinylidene-3-oxo-4,4,4-trifluorobutanoic acids as new selective carboxylesterase inhibitors and radical scavengers” (Bioorg Med Chem Lett, 2019)
The source made the active and inactive calls. No cut-off for these calls is given here.

Key:
[1] = target: T1, Liver carboxylesterase (Sus scrofa, UniProt Q29550); test: Inhibition of porcine liver carboxylesterase using 4-NPA as substrate preincubated for 10 mins followed by substrate addition by spectrophotometric analysis
T1 sequence (Q29550 whole entry): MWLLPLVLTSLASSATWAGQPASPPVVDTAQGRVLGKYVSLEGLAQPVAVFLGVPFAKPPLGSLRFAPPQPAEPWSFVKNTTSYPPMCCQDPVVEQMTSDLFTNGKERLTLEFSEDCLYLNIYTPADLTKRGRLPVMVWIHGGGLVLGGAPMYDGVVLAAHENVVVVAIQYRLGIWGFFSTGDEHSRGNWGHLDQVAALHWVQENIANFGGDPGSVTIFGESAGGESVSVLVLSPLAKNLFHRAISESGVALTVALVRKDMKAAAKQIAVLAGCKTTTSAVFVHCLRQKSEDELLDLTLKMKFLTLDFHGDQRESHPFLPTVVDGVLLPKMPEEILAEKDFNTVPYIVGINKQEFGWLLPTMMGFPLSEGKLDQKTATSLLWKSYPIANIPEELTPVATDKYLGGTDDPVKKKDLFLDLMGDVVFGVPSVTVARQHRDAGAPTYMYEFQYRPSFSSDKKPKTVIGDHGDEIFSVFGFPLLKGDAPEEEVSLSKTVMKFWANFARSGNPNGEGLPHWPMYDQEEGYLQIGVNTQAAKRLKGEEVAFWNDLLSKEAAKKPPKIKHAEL

[2] = target: Acetylcholinesterase (Homo sapiens) (UniProt P22303); test: Inhibition of human erythrocyte AChE at 20 uM using acetylthiocholine iodide as substrate preincubated for 10 mins followed by substrate addition by Ellman's method relative to control
[3] = target: Cholinesterase (Equus caballus) (UniProt P81908); test: Inhibition of equine serum BuChE at 20 uM using […] as substrate preincubated for 10 mins followed by substrate addition by Ellman's method relative to control
[4] = Potency index, ratio of trolox IC50 to test compound IC50 for antioxidant activity assessed as decrease in ABTS radical cation scavenging activity; format: functional
[5] = target: T1, Liver carboxylesterase; test: Inhibition of porcine liver carboxylesterase at 20 uM using 4-NPA as substrate preincubated for 10 mins followed by substrate addition by spectrophotometric analysis relative to control; details: pig
[6] = Antioxidant activity assessed as decrease in ABTS radical cation scavenging activity every 1 min for 6 mins by UV-Vis spectrophotometric analysis; format: functional
[7] = Antioxidant activity assessed as decrease in ABTS radical cation scavenging activity after 1 min by UV-Vis spectrophotometric analysis relative to control; format: functional; set-up: scale not given: the % may be the effect or the level left
[8] = Potency index, ratio of ascorbic acid IC50 to test compound IC50 for antioxidant activity assessed as decrease in ABTS radical cation scavenging activity; format: functional
[9] = target: T1, Liver carboxylesterase; test: Competitive inhibition of porcine liver carboxylesterase by double reciprocal Lineweaver-Burk plot analysis
[10] = target: T1, Liver carboxylesterase; test: Non-competitive inhibition of porcine liver carboxylesterase by double reciprocal Lineweaver-Burk plot analysis; details: pig

Cholinesterase (Equus caballus), sequence (P81908 whole entry): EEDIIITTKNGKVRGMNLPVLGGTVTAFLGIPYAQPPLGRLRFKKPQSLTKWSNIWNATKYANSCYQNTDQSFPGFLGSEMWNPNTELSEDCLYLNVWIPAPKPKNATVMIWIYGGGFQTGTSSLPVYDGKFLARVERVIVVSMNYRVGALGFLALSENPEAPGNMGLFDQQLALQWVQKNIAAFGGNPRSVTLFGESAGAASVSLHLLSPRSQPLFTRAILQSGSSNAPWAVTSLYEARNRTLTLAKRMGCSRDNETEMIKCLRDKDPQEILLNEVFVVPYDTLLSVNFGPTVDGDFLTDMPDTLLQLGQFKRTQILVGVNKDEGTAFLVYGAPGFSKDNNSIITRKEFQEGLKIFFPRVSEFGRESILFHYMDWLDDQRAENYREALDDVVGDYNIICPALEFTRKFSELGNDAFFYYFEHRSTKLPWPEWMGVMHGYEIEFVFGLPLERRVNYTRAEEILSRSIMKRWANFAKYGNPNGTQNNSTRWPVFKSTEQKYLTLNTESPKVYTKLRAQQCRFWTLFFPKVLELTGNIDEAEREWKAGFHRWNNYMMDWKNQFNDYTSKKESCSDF
Acetylcholinesterase (Homo sapiens), sequence (P22303 whole entry): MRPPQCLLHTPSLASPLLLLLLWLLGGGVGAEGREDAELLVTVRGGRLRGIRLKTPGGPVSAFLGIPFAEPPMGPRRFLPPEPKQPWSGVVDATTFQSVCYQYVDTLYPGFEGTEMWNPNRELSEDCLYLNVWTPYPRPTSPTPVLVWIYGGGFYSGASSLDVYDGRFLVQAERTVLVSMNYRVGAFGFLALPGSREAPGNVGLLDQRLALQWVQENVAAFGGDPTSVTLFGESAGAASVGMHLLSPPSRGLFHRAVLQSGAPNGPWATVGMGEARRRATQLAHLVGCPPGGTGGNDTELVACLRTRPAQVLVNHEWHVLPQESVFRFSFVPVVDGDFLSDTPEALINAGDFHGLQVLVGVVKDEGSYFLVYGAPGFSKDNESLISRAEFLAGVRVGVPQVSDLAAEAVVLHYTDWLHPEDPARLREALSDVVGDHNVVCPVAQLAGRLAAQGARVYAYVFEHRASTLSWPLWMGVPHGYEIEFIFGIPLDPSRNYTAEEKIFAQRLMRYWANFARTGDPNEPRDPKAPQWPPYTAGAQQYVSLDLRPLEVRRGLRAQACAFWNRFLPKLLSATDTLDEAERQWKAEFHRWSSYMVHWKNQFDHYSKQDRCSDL

| Compound | IC50 [1] [µM] | inhibition [2] | inhibition [3] | Ratio IC50 [4] | inhibition (INH) ([5]; 20 µM) | IC50 [6] [µM] | inhibition at 20 µM ([5]; porcine liver carboxylesterase, probe 4-NPA) [%] | Activity [7] [%] | Ratio IC50 [8] | Ki [9] [µM] | alphaKi [10] [µM] |
| --- | --- | --- | --- | --- | --- | --- | --- | --- | --- | --- | --- |
| CCOC(=O)c1ccccc1N/N=C(\C(=O)O)C(=O)C(F)(F)F | 0.0696 | 16.5% | 8.7% | 0.01 | – | – | – | – | – | – | – |
| COc1ccc(N/N=C(/C(C)=O)C(=O)O)cc1 | – | inactive | 5.4% | 1.9 | Not Active | 9.7 | – | – | – | – | – |
| O=C1O[C@H]([C@@H](O)CO)C(O)=C1O [ASCORBIC ACID] | – | – | – | 0.98 | – | 21.4 | – | – | – | – | – |
| CC(=O)/C(=N/Nc1ccc(C)cc1)C(=O)O | – | inactive | inactive | 1.65 | – | 12.8 | 9.3 | – | – | – | – |
| COc1ccc(N/N=C(\C(=O)O)C(=O)C(F)(F)F)cc1 | 2.62 | inactive | 17.3% | 1.9 | – | 11 | – | 75 | 2 | – | – |
| CCOC(=O)c1ccc(N/N=C(\C(=O)O)C(=O)C(F)(F)F)cc1 | 0.324 | 8.1% | 3.4% | 0.25 | – | 96.4 | – | – | – | – | – |
| O=C(O)/C(=N\Nc1ccc([N+](=O)[O-])cc1)C(=O)C(F)(F)F | 2.76 | 6.1% | 17.3% | 0.05 | – | – | – | – | – | – | – |
| Cc1ccc(N/N=C(\C(=O)O)C(=O)C(F)(F)F)cc1 | 0.63 | inactive | 18.1% | 1.69 | – | 12.1 | – | – | 2 | 0.337 | 1.11 |
| O=[N+]([O-])c1ccc(OP(=O)(O)Oc2ccc([N+](=O)[O-])cc2)cc1 | – | inactive | inactive | – | – | – | – | – | – | – | – |
| Cc1c(C)c2c(c(C)c1O)CCC(C)(C(=O)O)O2 (stereo not drawn) [TROLOX] | – | – | – | – | – | 20.4 | – | – | – | – | – |
